Measured values reported in the NIST ThermoML archive (doi:10.1016/j.fluid.2018.05.032).
Where “and” joins values, the source holds several entries; their conditions need not be identical. Identical values can stand only once.

Assays:
[1] = molar heat capacity at constant pressure; settings: 101.33 kPa, Liquid, DSC
[2] = for vapor or sublimation pressure: Closed cell (Static) method
[3] = Molar enthalpy of transition or fusion; settings: Crystal; DSC

CCNCCO [2-(ethylamino)ethanol]
[1]
Settings | molar heat capacity at constant pressure [J/K/mol]
265 K | 215.4
270 K | 217.1
275 K | 218.8
280 K | 220.3
285 K | 222
290 K | 223.6
295 K | 225.5
300 K | 227.7
305 K | 229.9
310 K | 232.1
315 K | 234.6
320 K | 237
325 K | 239.5
330 K | 242
335 K | 244.4
340 K | 247
345 K | 249.9
350 K | 252.9
355 K | 255.9

[2]
Settings | Normal melting temperature [°C] | vapor or sublimation pressure
238.05 K, Crystal | – | 5e-05 kPa and 4.9e-05 kPa and 4.8e-05 kPa
243.07 K, Crystal | – | 0.000113 kPa and 0.000112 kPa
243.07 K, Metastable liquid | – | 0.000222 kPa and 0.000223 kPa and 0.000221 kPa
248.11 K, Metastable liquid | – | 0.000424 kPa and 0.000423 kPa
248.13 K, Crystal | – | 0.000251 kPa and 0.000252 kPa
248.14 K, Crystal | – | 0.000253 kPa
253.13 K, Crystal | – | 0.000545 kPa and 0.000544 kPa and 0.000546 kPa
253.13 K, Metastable liquid | – | 0.000783 kPa and 0.000784 kPa and 0.000781 kPa
258.13 K, Crystal | – | 0.001146 kPa
258.13 K, Metastable liquid | – | 0.001403 kPa and 0.001401 kPa
258.14 K, Crystal | – | 0.001142 kPa and 0.001139 kPa
258.14 K, Metastable liquid | – | 0.001403 kPa
263.13 K, Metastable liquid | – | 0.002453 kPa
263.14 K, Crystal | – | 0.002334 kPa and 0.002326 kPa and 0.00232 kPa
263.14 K, Metastable liquid | – | 0.002454 kPa
268.14 K, Liquid | – | 0.004201 kPa and 0.004205 kPa and 0.004206 kPa
273.14 K, Liquid | – | 0.007045 kPa and 0.007039 kPa and 0.007052 kPa
278.14 K, Liquid | – | 0.01158 kPa
283.14 K, Liquid | – | 0.01862 kPa and 0.01863 kPa
288.14 K, Liquid | – | 0.02935 kPa and 0.02936 kPa and 0.02934 kPa
293.13 K, Liquid | – | 0.04545 kPa and 0.04543 kPa
298.14 K, Liquid | – | 0.06913 kPa and 0.06915 kPa
303.13 K, Liquid | – | 0.1034 kPa
303.14 K, Liquid | – | 0.1035 kPa
308.14 K, Liquid | – | 0.1525 kPa
Crystal, DTA | -9.2 | –

Settings | Molar enthalpy of transition or fusion [kcal/mol]
[3] | 3.94
